Among the data in patent US8552004B2, “Chemical compounds” (AstraZeneca AB, priority 2010, dated 2013) are IC50 values, retold here.

ATR, sequence (Q13535 whole entry): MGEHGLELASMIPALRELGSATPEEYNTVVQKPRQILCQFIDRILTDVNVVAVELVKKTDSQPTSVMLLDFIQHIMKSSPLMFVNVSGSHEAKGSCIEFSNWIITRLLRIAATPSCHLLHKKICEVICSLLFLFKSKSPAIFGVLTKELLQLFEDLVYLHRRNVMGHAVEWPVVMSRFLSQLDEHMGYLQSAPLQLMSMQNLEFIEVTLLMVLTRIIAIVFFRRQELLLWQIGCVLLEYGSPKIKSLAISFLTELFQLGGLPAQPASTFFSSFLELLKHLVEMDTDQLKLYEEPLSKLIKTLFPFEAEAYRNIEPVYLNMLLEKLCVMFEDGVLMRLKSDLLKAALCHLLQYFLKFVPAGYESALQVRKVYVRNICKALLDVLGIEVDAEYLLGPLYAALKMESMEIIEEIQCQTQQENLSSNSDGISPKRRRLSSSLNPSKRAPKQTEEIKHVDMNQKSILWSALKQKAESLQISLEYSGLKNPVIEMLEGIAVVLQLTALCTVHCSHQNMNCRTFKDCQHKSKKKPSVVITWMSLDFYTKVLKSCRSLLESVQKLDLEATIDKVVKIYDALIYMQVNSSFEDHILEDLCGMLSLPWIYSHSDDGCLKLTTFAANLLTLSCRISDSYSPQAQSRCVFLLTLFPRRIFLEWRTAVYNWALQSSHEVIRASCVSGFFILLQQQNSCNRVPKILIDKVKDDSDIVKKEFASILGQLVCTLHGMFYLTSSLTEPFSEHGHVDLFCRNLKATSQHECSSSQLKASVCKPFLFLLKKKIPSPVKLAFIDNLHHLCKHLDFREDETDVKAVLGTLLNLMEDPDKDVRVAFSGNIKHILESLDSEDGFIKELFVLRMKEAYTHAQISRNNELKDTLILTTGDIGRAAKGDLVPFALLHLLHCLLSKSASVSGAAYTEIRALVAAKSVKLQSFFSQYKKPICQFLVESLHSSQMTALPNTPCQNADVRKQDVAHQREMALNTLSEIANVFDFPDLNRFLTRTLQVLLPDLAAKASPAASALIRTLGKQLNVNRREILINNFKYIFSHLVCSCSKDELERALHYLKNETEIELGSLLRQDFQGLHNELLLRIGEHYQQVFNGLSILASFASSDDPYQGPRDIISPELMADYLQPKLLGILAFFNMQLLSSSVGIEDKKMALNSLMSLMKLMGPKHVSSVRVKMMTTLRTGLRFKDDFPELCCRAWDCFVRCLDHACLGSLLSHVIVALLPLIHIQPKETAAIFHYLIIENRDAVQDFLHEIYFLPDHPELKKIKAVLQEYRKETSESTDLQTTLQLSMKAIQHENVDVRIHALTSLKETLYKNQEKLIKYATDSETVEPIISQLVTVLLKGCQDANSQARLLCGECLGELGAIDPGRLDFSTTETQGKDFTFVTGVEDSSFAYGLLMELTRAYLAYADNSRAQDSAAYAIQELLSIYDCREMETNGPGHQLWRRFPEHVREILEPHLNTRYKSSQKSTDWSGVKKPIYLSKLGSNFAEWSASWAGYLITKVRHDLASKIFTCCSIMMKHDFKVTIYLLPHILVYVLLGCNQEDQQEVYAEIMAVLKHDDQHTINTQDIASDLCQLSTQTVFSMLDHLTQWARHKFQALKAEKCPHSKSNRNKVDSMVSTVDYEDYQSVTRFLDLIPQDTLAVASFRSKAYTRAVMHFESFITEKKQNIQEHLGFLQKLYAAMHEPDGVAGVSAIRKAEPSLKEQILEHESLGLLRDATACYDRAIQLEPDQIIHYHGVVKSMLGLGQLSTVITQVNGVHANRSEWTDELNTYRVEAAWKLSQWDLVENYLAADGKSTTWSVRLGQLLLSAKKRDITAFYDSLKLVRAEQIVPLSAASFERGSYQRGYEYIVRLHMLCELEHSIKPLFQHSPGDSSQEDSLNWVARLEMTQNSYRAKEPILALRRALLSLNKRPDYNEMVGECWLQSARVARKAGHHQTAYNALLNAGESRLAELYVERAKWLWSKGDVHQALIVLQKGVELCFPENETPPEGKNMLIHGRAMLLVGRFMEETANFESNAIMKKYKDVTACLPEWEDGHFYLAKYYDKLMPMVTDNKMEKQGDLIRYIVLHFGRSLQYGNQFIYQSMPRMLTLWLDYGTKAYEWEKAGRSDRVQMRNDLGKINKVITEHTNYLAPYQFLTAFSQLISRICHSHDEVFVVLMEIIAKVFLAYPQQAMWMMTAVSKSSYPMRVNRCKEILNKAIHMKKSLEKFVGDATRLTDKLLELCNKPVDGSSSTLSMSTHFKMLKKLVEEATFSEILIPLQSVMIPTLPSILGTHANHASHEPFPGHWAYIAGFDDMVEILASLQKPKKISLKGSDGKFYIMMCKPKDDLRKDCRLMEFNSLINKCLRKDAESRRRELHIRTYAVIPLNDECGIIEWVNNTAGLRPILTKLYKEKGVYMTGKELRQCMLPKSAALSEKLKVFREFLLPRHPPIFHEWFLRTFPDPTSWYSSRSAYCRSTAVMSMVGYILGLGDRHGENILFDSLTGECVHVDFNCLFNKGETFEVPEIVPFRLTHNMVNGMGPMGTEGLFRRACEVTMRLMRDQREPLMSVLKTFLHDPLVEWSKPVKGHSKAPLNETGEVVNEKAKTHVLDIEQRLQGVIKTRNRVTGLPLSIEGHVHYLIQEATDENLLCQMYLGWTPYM
ATR, sequence (Q8WXE1 whole entry partner): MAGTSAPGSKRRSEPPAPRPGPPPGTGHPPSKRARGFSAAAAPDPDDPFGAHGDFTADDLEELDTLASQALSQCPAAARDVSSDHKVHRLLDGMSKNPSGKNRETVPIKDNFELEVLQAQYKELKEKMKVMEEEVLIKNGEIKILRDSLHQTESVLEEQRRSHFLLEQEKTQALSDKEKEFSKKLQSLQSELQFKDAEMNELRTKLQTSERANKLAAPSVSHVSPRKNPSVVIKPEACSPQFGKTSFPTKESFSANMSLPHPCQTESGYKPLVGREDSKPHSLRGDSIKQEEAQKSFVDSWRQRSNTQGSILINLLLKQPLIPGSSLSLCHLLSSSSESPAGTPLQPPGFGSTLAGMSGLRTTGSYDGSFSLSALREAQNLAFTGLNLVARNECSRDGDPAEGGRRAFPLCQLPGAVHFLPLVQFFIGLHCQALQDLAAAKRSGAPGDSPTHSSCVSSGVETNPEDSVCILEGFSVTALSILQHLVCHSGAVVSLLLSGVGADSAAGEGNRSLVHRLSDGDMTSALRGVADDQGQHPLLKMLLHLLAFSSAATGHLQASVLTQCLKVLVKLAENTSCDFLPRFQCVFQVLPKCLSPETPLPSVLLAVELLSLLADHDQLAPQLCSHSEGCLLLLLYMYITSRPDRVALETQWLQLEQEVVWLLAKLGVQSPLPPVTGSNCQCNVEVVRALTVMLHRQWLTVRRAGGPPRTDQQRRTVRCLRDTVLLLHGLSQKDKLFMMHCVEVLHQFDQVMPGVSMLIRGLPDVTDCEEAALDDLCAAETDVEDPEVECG

This assay has as its target ATR (Homo sapiens (Human), UniProt Q13535). In words: Cellular Assay - ATR, phosphorylation of Chk1 (Ser 345) in HT29 cells after 4NQO (Test (b)). The class given is cell-based. The settings on record: cell assay Test (b); pChk1 Ser345 in HT29 cells, 3 μM 4NQO; arithmetic mean. The source says: ATM and ATR have distinct and overlapping responses to DNA damage. They must participate together and responses must be co-ordinated. Both pathways may be activated by ionising radiation, however only ATR is activated by UV. Since UV treatment is not practical for use in a high throughput cell assay, the UV mimetic 4NQ0 (Sigma) was chosen to activate the ATR DNA damage response pathway.
Chk1, a downstream protein kinase of ATR, plays a key role in DNA damage checkpoint control. Activation of Chk1 involves phosphorylation of Ser317 and Ser345 (regarded as the preferential target for phosphorylation/activation by ATR). […] Compounds dose ranges were created by diluting in 100% DMSO and then further into assay media (EMEM, 10% FCS, 1% glutamine) using a Labcyte Echo Acoustic dispensing instrument. Cells were plated in 384 well Costar plates at 9×10^4 cells per ml in 40 μL EMEM, 10% FCS, 1% glutamine and grown for 24 hrs. Following addition of compound the cells were incubated for 60 minutes. A final concentration of 3 μM 4NQ0 (prepared in 100% DMSO) was then added using the Labcyte Echo and the cells incubated for a further 60mins. The cells are then fixed by adding 40 μL 3.7% v/v formaldehyde solution for 20 minutes. After removal of fix, cells were washed with PBS and permeabilised in 40 μL of PBS containing 0.1% Triton™ X-100. Cells are then washed and 15 μl primary antibody solution (pChk1 Ser345) added and the plates incubated at 4° C. overnight. […] The plates are washed and left in 40 μl PBS. Plates were then read on an ArrayS can Vti instrument to determine staining intensities, and dose responses were obtained and used to determine the IC50 values for the compounds.
As to `CNc1nc2cc(F)ccc2n1-c1nc(N2CCOC[C@H]2C)cc(C2([S@@](C)(=N)=O)CC2)n1` [Example 5.09, 5-fluoro-N-methyl-1-{4-[(3R)-3-methylmorpholin-4-yl]-6-[1-((S)—S-methylsulfonimidoyl)cyclopropyl]pyrimidin-2-yl}-1H-benzimidazol-2-amine], the IC50 (usually the concentration at which inhibition is half-maximal) stood at 18 nM. In turn, `CNc1nc2ccc(F)cc2n1-c1nc(N2CCOC[C@H]2C)cc(C(C)(C)[S@@](C)(=N)=O)n1` [Example 5.06, 6-fluoro-N-methyl-1-{4-[1-methyl-1-((S)—S-methylsulfonimidoyl)ethyl]-6-[(3R)-3-methylmorpholin-4-yl]pyrimidin-2-yl}-1H-benzimidazol-2-amine] had an IC50 of 44.4 nM. The same measure for `CNc1nc2c(F)cccc2n1-c1nc(N2CCOC[C@H]2C)cc(C(C)(C)[S@@](C)(=N)=O)n1` [Example 5.01, 4-Fluoro-N-methyl-1-{4-[1-methyl-1-((S)—S-methylsulfonimidoyl)ethyl]-6-[(3R)-3-methylmorpholin-4-yl]pyrimidin-2-yl}-1H-benzimidazol-2-amine]: 62.5 nM; for `C[C@@H]1COCCN1c1cc(C2([S@@](C)(=N)=O)CCOCC2)nc(-c2cccc3[nH]ccc23)n1` [Example 4.03]: 51.1 nM. Then `C[C@@H]1COCCN1c1cc(C2([S@](C)(=N)=O)CC2)nc(-c2cccc3[nH]ccc23)n1` [Example 2.05, 4-{4-[(3R)-3-Methylmorpholin-4-yl]-6-[1-((R)—S-methylsulfonimidoyl)cyclopropyl]pyrimidin-2-yl}-1H-indole], with 75.8 nM; and `CNc1nc2c(F)cccc2n1-c1nc(N2CCOC[C@H]2C)cc(C2([S@@](C)(=N)=O)CC2)n1` [Example 2.10, 4-fluoro-N-methyl-{4-[(3R)-3-methylmorpholin-4-yl]-6-[1-((S)—S-methylsulfonimidoyl)cyclopropyl]pyrimidin-2-yl}-1H-benzimidazol-2-amine], with 109 nM; and `CNc1nc2ccc(F)cc2n1-c1nc(N2CCOC[C@H]2C)cc(C(C)(C)[S@](C)(=N)=O)n1` [Example 5.03, 6-Fluoro-N-methyl-1-{4-[1-methyl-1-((R)—S-methylsulfonimidoyl)ethyl]-6-[(3R)-3-methylmorpholin-4-yl]pyrimidin-2-yl}-1H-benzimidazol-2-amine], with 33.1 nM. Then `CNc1nc2ccc(F)cc2n1-c1nc(N2CCOC[C@H]2C)cc(C2([S@](C)(=N)=O)CC2)n1` [Example 5.07, 6-Fluoro-N-methyl-1-{4-[(3R)-3-methylmorpholin-4-yl]-6-[1-((R)—S-methylsulfonimidoyl)cyclopropyl]pyrimidin-2-yl}-1H-benzimidazol-2-amine], with 29 nM. Regarding `CNc1nc2c(F)cccc2n1-c1nc(N2CCOC[C@H]2C)cc(C(C)(C)[S@](C)(=N)=O)n1` [Example 5.02, 4-fluoro-N-methyl-1-{4-[1-methyl-1-((R)—S-methylsulfonimidoyl)ethyl]-6-[(3R)-3-methylmorpholin-4-yl]pyrimidin-2-yl}-1H-benzimidazol-2-amine], half-maximal inhibition (IC50) required 70.8 nM. `CNc1nc2cc(F)ccc2n1-c1nc(N2CCOC[C@H]2C)cc(C(C)(C)[S@@](C)(=N)=O)n1` [Example 5.05, 5-Fluoro-N-methyl-1-{4-[1-methyl-1-((S)—S-methylsulfonimidoyl)ethyl]-6-[(3R)-3-methylmorpholin-4-yl]pyrimidin-2-yl}-1H-benzimidazol-2-amine] showed an IC50 of 18.3 nM. The same measure for `C[C@@H]1COCCN1c1cc(C2([S@@](C)(=N)=O)CC2)nc(-n2c(N)nc3ccccc32)n1` [Example 2.08, 1-{4-[(3R)-3-methylmorpholin-4-yl]-6-[1-((S)—S-methylsulfonimidoyl)cyclopropyl]pyrimidin-2-yl}-1H-benzimidazol-2-amine]: 2.76 nM; for `C[C@@H]1COCCN1c1cc(C2([S@@](C)(=N)=O)CC2)nc(-c2cccc3[nH]ccc23)n1` [Example 2.06, 4-{4-[(3R)-3-methylmorpholin-4-yl]-6-[1-((S)—S-methylsulfonimidoyl)cyclopropyl]pyrimidin-2-yl}-1H-indole]: 12.9 nM; for `CNc1nc2cc(F)ccc2n1-c1nc(N2CCOC[C@H]2C)cc(C2([S@](C)(=N)=O)CC2)n1` [Example 5.08, 5-fluoro-N-methyl-1-{4-[(3R)-3-methylmorpholin-4-yl]-6-[1-((R)—S-methylsulfonimidoyl)cyclopropyl]pyrimidin-2-yl}-1H-benzimidazol-2-amine]: 10.1 nM.

On to `CNc1nc2ccccc2n1-c1nc(N2CCOC[C@H]2C)cc(C2([S@](C)(=N)=O)CCOCC2)n1` [Example 4.02, N-methyl-1-{4-[(3R)-3-methylmorpholin-4-yl]-6-[4-((R)—S-methylsulfonimidoyl)tetrahydro-2H-pyran-4-yl]pyrimidin-2-yl}-1H-benzimidazol-2-amine], for which half-maximal inhibition (IC50) required 39.8 nM.

`CNc1nc2ccccc2n1-c1nc(N2CCOC[C@H]2C)cc(C(C)(C)[S@](C)(=N)=O)n1` [Example 3.02, N-methyl-1-{4-[1-methyl-1-((R)—S-methylsulfonimidoyl)ethyl]-6-[(3R)-3-methylmorpholin-4-yl]pyrimidin-2-yl}-1H-benzimidazol-2-amine] yielded an IC50 of 8.43 nM.

The compound `CNc1nc2c(F)cccc2n1-c1nc(N2CCOC[C@H]2C)cc(C2([S@](C)(=N)=O)CC2)n1` [Example 2.09, 4-Fluoro-N-methyl-1-{4-[(3R)-3-methylmorpholin-4-yl]-6-[1-((R)—S-methylsulfonimidoyl)cyclopropyl]pyrimidin-2-yl}-1H-benzimidazol-2-amine] registered an IC50 of 159 nM. Then `CNc1nc2ccccc2n1-c1nc(N2CCOC[C@H]2C)cc(C2([S@@](C)(=N)=O)CCOCC2)n1` [Example 4.01, N-Methyl-1-{4-[(3R)-3-methylmorpholin-4-yl]-6-[4-((S)—S-methylsulfonimidoyl)tetrahydro-2H-pyran-4-yl]pyrimidin-2-yl}-1H-benzimidazol-2-amine], with 53.6 nM; and `CNc1nc2ccc(F)cc2n1-c1nc(N2CCOC[C@H]2C)cc(C2([S@@](C)(=N)=O)CC2)n1` [Example 5.10, 6-fluoro-N-methyl-1-{4-[(3R)-3-methylmorpholin-4-yl]-6-[1-((S)—S-methylsulfonimidoyl)cyclopropyl]pyrimidin-2-yl}-1H-benzimidazol-2-amine], with 47 nM; and `CNc1nc2cc(F)ccc2n1-c1nc(N2CCOC[C@H]2C)cc(C(C)(C)[S@](C)(=N)=O)n1` [Example 5.04, 5-Fluoro-N-methyl-1-{4-[1-methyl-1-((R)—S-methylsulfonimidoyl)ethyl]-6-[(3R)-3-methylmorpholin-4-yl]pyrimidin-2-yl}-1H-benzimidazol-2-amine], with 16.2 nM. Compound `C[C@@H]1COCCN1c1cc(C2([S@](C)(=N)=O)CC2)nc(-n2c(N)nc3ccccc32)n1` [Example 2.07, 1-{4-[(3R)-3-Methylmorpholin-4-yl]-6-[1-((R)—S-methylsulfonimidoyl)cyclopropyl]pyrimidin-2-yl}-1H-benzimidazol-2-amine] had a concentration for half-maximal inhibition (IC50) of 2.58 nM. On to `CNc1nc2ccccc2n1-c1nc(N2CCOC[C@H]2C)cc(C(C)(C)[S@@](C)(=N)=O)n1` [Example 3.01, N-methyl-1-{4-[1-methyl-1-((S)—S-methylsulfonimidoyl)ethyl]-6-[(3R)-3-methylmorpholin-4-yl]pyrimidin-2-yl}-1H-benzimidazol-2-amine], for which 12.8 nM corresponded to half-maximal inhibition (IC50).
